Experimental data as given in patent US20120165319A1, “INHIBITORS OF INTERLEUKIN-1 BETA CONVERTING ENZYME” (VERTEX PHARMACEUTICALS INCORPORATED, priority 1995, published 2012).

Assays:
[1] = molecular target: T1, ICE (Homo sapiens, UniProt P29466); experiment: Enzyme assay with UV-visible substrate (visible ICE assay, Succinyl-Tyr-Val-Ala-Asp-pNitroanilide); type: biochemical; settings: Table 5
T1 sequence (P29466 120-297 limits assumed): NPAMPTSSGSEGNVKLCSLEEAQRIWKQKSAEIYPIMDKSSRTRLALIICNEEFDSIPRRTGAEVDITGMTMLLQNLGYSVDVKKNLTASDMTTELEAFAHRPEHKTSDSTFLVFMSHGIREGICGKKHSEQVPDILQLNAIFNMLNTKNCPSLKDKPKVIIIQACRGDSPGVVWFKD
T1 sequence (P29466 317-404 limits assumed): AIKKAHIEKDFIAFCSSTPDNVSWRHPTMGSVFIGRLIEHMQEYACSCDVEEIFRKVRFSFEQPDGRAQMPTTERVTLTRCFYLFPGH
Procedure, shortened: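 Human ICE was preincubated with inhibitor in DMSO and buffer for 15 min at room temperature, then succinyl-Tyr-Val-Ala-Asp-pNA was added. pNA release was followed at 405-603 nm for 20 min at 37° C. Ki and inhibition mode came from fitting rates to standard kinetic equations.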

[2] = test system: IL-1β, human peripheral blood mononuclear cells (PBMC); experiment: PBMC cell assay: IL-1β assay with human PBMC or enriched adherent mononuclear cells, LPS-stimulated; type: cell-based; settings: Homo sapiens, PBMC, * = values obtained upon reassay
Procedure, shortened: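 Mature IL-1β is measured by ELISA in supernatants after 16–18 hr at 37 °C, 5% CO2, with LPS (5 ng/ml final) and test compound (0.1% DMSO final). Cells are human PBMC (6×10^6 cells/ml) or plate-adherent mononuclear cells (2.5−3.0×10^5 per well), and the 5–6 compound concentrations span the ICE Ki.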

[3] = test system: IL-1β production, LPS-challenged mice; experiment: In vivo acute assay for efficacy as anti-inflammatory agent: LPS-induced IL-1β production in mice; parameters: species or system mouse; settings: LPS challenged mice, PO, 50 mg/kg; * = values obtained in subsequent assays (Table 4)
Procedure, shortened: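 Serum IL-1β was measured by ELISA 7 h after an IP dose of 20 mg/kg LPS in CD1 mice, n=6 per group. Compounds in olive oil/DMSO/ethanol 90:5:5 were injected IP 1 h post-LPS (some analogs were dosed at challenge), and separate groups received 50 mg/kg by oral gavage.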

[4] = Measurement of blood levels of prodrugs of 214e after p.o. dosing in mice; type: in vivo, mouse; settings: p.o. 50 mg/kg in 0.5% carboxymethylcellulose, blood at 1 and 7 hours
Procedure: Measurement of Blood Levels of Prodrugs of 214e
Mice were administered a p.o. dose of compounds 302 and 304a (50 mg/kg) prepared in 0.5% carboxymethylcellulose. Blood samples were collected at 1 and 7 hours after dosing. Serum was extracted by precipitation with an equal volume of acetonitrile containing 2% formic acid followed by centrifugation. The supernatant was analyzed by liquid chromatography-mass spectrometry (ESI-MS) with a detection level of 0.03 to 3 μg/ml.

[5] = test system: IFN-γ, human PBMC; experiment: Human PBMC assay (Example 27): IFN-γ production; type: cell-based; settings: LPS-stimulated human PBMCs (FIG. 5); read-out: IC50, decrease of IFN-γ production
Procedure: (§1) Since the processing and secretion of biologically active IGIF is mediated by ICE, we compared the activity of a reversible ICE inhibitor (Ac-YVAD-CHO) on IL-1β and IFN-γ production in a peripheral blood mononuclear cell (PBMC) assay (Examples 27).
(§2) Human buffy coat cells were obtained from blood donors and peripheral blood mononuclear cells (PBMC) were isolated by centrifugation in LeukoPrep tubes (Becton-Dickinson, Lincoln Park, N.J.). PBMC were added (3×10^6/well) to 24 well Corning tissue culture plates and after 1 hr incubation at 37° C., non-adherent cells were removed by gently washing. Adherent mononuclear cells were stimulated with LPS (1 μg/ml) with or without ICE inhibitor in 2 ml RPMI-1640-10% FBS. After 16-18 hr incubation at 37° C., IGIF and IFN-γ were quantitated in culture supernatants by ELISA.

[6] = test system: IL-1β, human PBMC; experiment: Human PBMC assay (Example 27): IL-1β production; type: cell-based; settings: LPS-stimulated human PBMCs (FIG. 5); read-out: IC50, decrease of IL-1β production
Procedure: as §1, §2

Row | Compound | Ki [1] [µM] | IC50 [2] [µM] | Inhibition of IL-1β Production, compound administered 0 hr relative to LPS challenge [3] [%] | Inhibition of IL-1β Production, compound administered +1 hr relative to LPS challenge [3] [%] | Inhibition of IL-1β Production, compound administered −1 hr relative to LPS challenge [3] [%] | Inhibition of IL-1β Production, compound administered −2 hr relative to LPS challenge [3] [%] | blood levels when administered orally (in words) [4] | IC50 [5] [µM] | IC50 [6] [µM]
1 | COC1OC(=O)C[C@@H]1NC(=O)[C@@H]1CCCN2C(=O)CC[C@H](NC(=O)c3ccccc3)C(=O)N12 (stereo partly drawn) [Compound 304a, [1S,9S (2RS,3S)]9-Benzoylamino-6,10-dioxo-1,2,3,4,7,8,9,10-octahydro-N-(2-methoxy-5-oxo-tetrahydro-furan-3-yl)-6H-pyridazino[1,2-a][1,2]diazapine-1-carboxamide] | 0.2 | 1.4 | 68 | 37 | 33 | 30 | detectable blood levels |  | 
2 | AcYVAD-CHO [Ac-YVAD-CHO, reference compound] |  |  |  |  |  |  |  | 2.5 | 2.5
